Experimental findings from US8802696B2, “7-([1,2,4]triazolo[1,5-a]pyridin-6-yl)-4-(3,4-dichlorophenyl)-1,2,3,4-tetrahydroisoqu inoli and use thereof” (Albany Molecular Research, Inc., priority 2009, dated 2014) are described below.

The IC50 is the midpoint of a concentration-inhibition curve.

The structures appear in SMILES notation. Structures can show the parent of a compound that is named as a salt.

Assay [1] deals with T1, hSERT (Homo sapiens, UniProt P31645).
T1 construct: expressed in transfected cells; host or cells: HEK-293
T1 sequence (P31645 whole entry): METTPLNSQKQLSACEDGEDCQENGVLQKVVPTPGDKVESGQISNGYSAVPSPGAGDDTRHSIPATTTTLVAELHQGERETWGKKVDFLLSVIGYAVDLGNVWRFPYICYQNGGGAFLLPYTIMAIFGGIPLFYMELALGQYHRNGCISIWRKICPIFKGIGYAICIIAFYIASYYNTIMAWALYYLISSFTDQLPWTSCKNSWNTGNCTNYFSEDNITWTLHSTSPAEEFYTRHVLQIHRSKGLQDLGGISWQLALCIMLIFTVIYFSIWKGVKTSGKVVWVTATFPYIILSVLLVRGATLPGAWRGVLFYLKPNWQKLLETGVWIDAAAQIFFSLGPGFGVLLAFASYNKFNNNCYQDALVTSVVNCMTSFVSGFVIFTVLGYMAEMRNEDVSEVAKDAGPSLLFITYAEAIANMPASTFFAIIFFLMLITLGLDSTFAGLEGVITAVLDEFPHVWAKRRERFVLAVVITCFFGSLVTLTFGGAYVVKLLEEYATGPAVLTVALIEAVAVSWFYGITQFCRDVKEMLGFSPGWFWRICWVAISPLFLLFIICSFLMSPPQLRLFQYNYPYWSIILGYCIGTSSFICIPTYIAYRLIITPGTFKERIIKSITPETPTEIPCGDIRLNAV
Briefly: SERT radioligand binding assay ([125I]RTI-55, HEK-293 membranes). As to conditions: recombinant HEK-293 membranes. As to the method: (§1) Recombinant HEK-293 cells expressing either the hSERT, hDAT, or hNET proteins were harvested from T-175 flasks as follows. The medium was removed from the flasks and the cells rinsed with HBSS without Ca and without Mg. The cells were then incubated for 5-10 minutes in 10 mM Tris-Cl, pH 7.5, 5 mM EDTA before the cells were lifted with a combination of pipetting and scraping, as needed. The cell suspension was collected into centrifuge bottles and homogenized for 30 seconds with a Polytron homogenizer. The suspension was centrifuged for 30 minutes at 32,000×g, 4° C. The supernatant was decanted and the pellet resuspended and homogenized in 50 mM Tris-Cl, pH 7.5, 1 mM EDTA for 10 seconds. The suspension was then centrifuged again for 30 minutes at 32,000×g, 4° C. The supernatant was decanted and the pellet resuspended in 50 mM Tris-Cl, pH 7.5, 1 mM EDTA and briefly homogenized. […]
(§2) Compounds were dissolved in 100% DMSO at a concentration 100 times the desired highest assay concentration, serially diluted 1:3 in 100% DMSO, and 0.4 μl/well of each solution was dispensed to a Nunc polypropylene, round bottom, 384-well plate. […] The plates were air-dried overnight, 12 μl/well of MicroScint scintillation fluid added, and the plates counted in a Trilux.
The radioligand concentration chosen for each assay corresponds to the Kd concentration determined through saturation binding analysis for each assay.

For assay [2], the target named is T2, hDAT (Homo sapiens, UniProt Q01959).
T2 construct: expressed in transfected cells; host or cells: HEK-293
T2 sequence (Q01959 whole entry): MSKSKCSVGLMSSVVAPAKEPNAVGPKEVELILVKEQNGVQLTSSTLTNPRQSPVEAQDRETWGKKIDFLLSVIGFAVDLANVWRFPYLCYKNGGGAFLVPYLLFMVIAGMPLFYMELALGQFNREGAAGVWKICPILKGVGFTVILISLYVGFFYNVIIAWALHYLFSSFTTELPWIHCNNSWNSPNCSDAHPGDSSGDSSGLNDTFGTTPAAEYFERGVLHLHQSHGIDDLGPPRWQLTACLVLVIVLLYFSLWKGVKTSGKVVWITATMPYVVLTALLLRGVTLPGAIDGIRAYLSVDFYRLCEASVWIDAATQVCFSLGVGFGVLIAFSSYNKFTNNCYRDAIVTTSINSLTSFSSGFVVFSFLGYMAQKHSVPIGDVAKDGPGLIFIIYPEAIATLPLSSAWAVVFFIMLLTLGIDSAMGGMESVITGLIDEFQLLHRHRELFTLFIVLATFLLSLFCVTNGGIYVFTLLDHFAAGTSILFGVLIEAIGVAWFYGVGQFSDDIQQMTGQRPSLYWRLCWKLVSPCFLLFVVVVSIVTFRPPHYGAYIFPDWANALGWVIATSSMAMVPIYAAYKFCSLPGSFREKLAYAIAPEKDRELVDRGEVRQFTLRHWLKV
Briefly: DAT radioligand binding assay ([125I]RTI-55, HEK-293 membranes). As to conditions: recombinant HEK-293 membranes. As for the experimental part:
as §1, with “seconds.” for “seconds. The suspension was then centrifuged again for 30 minutes at 32,000×g, 4° C. The supernatant was decanted and the pellet resuspended in 50 mM Tris-Cl, pH 7.5, 1 mM EDTA and briefly homogenized.”
as §2
(§3) The raw data was normalized to percent inhibition using control wells defining 0% (DMSO only) and 100% (selective inhibitor) inhibition which were run on each plate. […] The radioligand concentration chosen for each assay corresponds to the Kd concentration determined through saturation binding analysis for each assay.

Assay [3] concerns the target T3, hNET (Homo sapiens, UniProt P23975).
T3 construct: expressed in transfected cells; host or cells: HEK-293
Briefly: NET radioligand binding assay ([3H]nisoxetine, HEK-293 membranes). As to conditions: recombinant HEK-293 membranes. As for the experimental part: as §1, with “seconds.” for “seconds. The suspension was then centrifuged again for 30 minutes at 32,000×g, 4° C. The supernatant was decanted and the pellet resuspended in 50 mM Tris-Cl, pH 7.5, 1 mM EDTA and briefly homogenized.”
Compounds were dissolved in 100% DMSO at a concentration 100 times the desired highest assay concentration, serially diluted 1:3 in 100% DMSO, and 1.0 μl/well of each solution was dispensed to a Nunc polypropylene, round bottom, 384-well plate. […] The plates were air-dried overnight, 12 μl/well of MicroScint scintillation fluid added, and the plates counted in a Trilux.
as §3

The subject of assay [4] is SERT. Briefly: Ex vivo binding occupancy assay, SERT ([3H]citalopram, brain tissue). As to conditions: dose 1 mg/kg, time point 3 hour, ex vivo binding in brain tissue. From the text: The general procedure for brain tissue collection and transporter occupancy assessment is briefly described as follows. Mice were sacrificed by asphyxiation in CO2, rats by decapitation and dogs by IV injection of euthanasia solution. For mice and rats, after the brains were removed from the skull, the forebrain tissue (removal of the brainstem and cerebellum) was used for SERT, NET, and DAT occupancy assessment. In dogs, the striatum was dissected for DAT occupancy and the remaining forebrain tissue (without the striatum, brainstem, and cerebellum) was used for SERT and NET occupancy assessment. The brain tissues were frozen in chilled isopentane and stored at −80° C. until homogenization.
The brain tissues were thawed and then homogenized using a polytron homogenizer (Kinematica). Sample aliquots were frozen immediately and stored at −80° C. Protein content was measured for each sample using a Coomassie protein assay kit (Pierce).
On the day of ex vivo binding for occupancy assessment, frozen sample aliquots were thawed and needle homogenized, and 100 μg of the tissue was incubated for SERT, NET, and DAT binding under assay conditions summarized in Table 1. […] Radioligand was measured using a Wallac Microbeta liquid scintillation counter.
The specific binding was calculated by subtracting the value of the non-specific binding from that of the total binding in each sample. […]

T3 sequence (P23975 whole entry): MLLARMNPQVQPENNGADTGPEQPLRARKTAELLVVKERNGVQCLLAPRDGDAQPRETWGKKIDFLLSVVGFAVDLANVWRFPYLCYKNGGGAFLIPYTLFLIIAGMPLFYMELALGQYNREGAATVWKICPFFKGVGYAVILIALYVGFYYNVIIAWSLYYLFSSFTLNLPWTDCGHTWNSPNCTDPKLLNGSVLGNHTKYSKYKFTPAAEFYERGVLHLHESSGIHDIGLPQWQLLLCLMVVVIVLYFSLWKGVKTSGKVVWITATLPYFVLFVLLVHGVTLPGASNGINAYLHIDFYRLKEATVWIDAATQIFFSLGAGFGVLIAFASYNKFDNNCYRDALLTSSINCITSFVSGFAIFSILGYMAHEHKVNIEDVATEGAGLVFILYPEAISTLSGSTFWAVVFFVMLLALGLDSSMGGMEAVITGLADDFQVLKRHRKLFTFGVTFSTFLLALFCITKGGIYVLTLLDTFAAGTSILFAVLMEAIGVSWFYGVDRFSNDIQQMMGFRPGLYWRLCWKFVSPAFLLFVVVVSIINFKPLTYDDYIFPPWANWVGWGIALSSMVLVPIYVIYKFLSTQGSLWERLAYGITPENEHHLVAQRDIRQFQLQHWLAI

Regarding `Clc1ccc(C2CNCc3cc(-c4ccc5ncnn5c4)ccc32)cc1Cl` (single isomer, unassigned; (-)) [Example 1 (−)-enantiomer, (−)-7-([1,2,4]triazolo[1,5-a]pyridin-6-yl)-4-(3,4-dichlorophenyl)-1,2,3,4-tetrahydroisoquinoline], the results for the half-maximal inhibitory concentration (IC50) in assay [1], in assay [2] and in assay [3] were 4.2 nM, 105 nM and 4.8 nM, respectively. Further, the “SERT Occupancy %” value in assay [4] is 41%.

In the case of `Clc1ccc(C2CNCc3cc(-c4ccc5ncnn5c4)ccc32)cc1Cl` (single isomer, unassigned; enantiomer 7) [Example 1 (+)-enantiomer, 7-([1,2,4]triazolo[1,5-a]pyridin-6-yl)-4-(3,4-dichlorophenyl)-1,2,3,4-tetrahydroisoquinoline, L-tartrate salt], the IC50 is 1.8 nM in assay [1], 30.8 nM in assay [2] and 26 nM in assay [3]. Also, the “SERT Occupancy %” value in assay [4] (L-tartrate salt) was 75%.
